Data reported in ChEMBL document CHEMBL1136037, “Novel benzthiodiazepinones as antiherpetic agents: SAR improvement of therapeutic index by alterations of the seven-membered ring” (Bioorg Med Chem Lett, 2002).

What was measured:
[1] = Therapeutic index; settings: read-out: Therapeutic index
[2] = Toxic concentration against uninfected cells and their ability to generate XTT formazan; format: ADME, cell-based; settings: read-out: TC50 (the source's name)
Human alphaherpesvirus 1 = assay: Inhibitory concentration against herpes simplex virus (HSV-1-lacZ) replication

With COc1ccc2sc3c(c2c1)N[C@@H](C)CNC3=O the selectivity ratio [1] was 40, the CC50 [2] was 2 µM and the EC50 (Human alphaherpesvirus 1) was 0.05 µM.
With COc1cccc(CN2C[C@@H](C)NC(=O)c3sc4ccc(OC)cc4c32)c1 the selectivity ratio [1] was 170, the CC50 [2] was 3.4 µM and the EC50 (Human alphaherpesvirus 1) was 0.03 µM.
In the case of COc1ccc2sc3c(c2c1)N(Cc1ccccc1C)CCNC3=O, the selectivity ratio [1] is reported as 1200, the CC50 [2] is reported as 25 µM and the EC50 (Human alphaherpesvirus 1) is reported as 0.021 µM.
In the case of COc1ccc2sc3c(c2c1)NC[C@@H](Cc1ccccc1)NC3=O, the selectivity ratio [1] is reported as 29, the CC50 [2] is reported as 10 µM and the EC50 (Human alphaherpesvirus 1) is reported as 0.34 µM.
With COc1ccc2sc3c(c2c1)N(Cc1cccc([N+](=O)[O-])c1)CCNC3=O the selectivity ratio [1] was 6250, the CC50 [2] was 25 µM and the EC50 (Human alphaherpesvirus 1) was 0.004 µM.
For COc1ccc2sc3c(c2c1)NC[C@H](C)NC3=O, the selectivity ratio [1] was 35, the CC50 [2] was 6 µM and the EC50 (Human alphaherpesvirus 1) was 0.17 µM.
For COc1ccc2sc3c(c2c1)N[C@H](Cc1ccccc1)CNC3=O, the selectivity ratio [1] was 16, the CC50 [2] was 1.4 µM and the EC50 (Human alphaherpesvirus 1) was 0.09 µM.
With COc1ccc2sc3c(c2c1)N(Cc1cccc(C)c1)CCNC3=O the selectivity ratio [1] was 2400, the CC50 [2] was 12 µM and the EC50 (Human alphaherpesvirus 1) was 0.005 µM.
Compound COc1ccc(CN2CCNC(=O)c3sc4ccc(OC)cc4c32)cc1 has a selectivity ratio [1] of 830, a CC50 [2] of 10 µM and an EC50 (Human alphaherpesvirus 1) of 0.012 µM.
COc1cccc(CN2C[C@H](C)NC(=O)c3sc4ccc(OC)cc4c32)c1 showed a selectivity ratio [1] of 550, a CC50 [2] of 11 µM and an EC50 (Human alphaherpesvirus 1) of 0.02 µM.
With COc1ccc2sc3c(c2c1)NC[C@@H](CC(C)C)NC3=O the selectivity ratio [1] was 18, the CC50 [2] was 7 µM and the EC50 (Human alphaherpesvirus 1) was 0.39 µM.
COc1ccc2sc3c(c2c1)N(Cc1ccc([N+](=O)[O-])cc1)CCNC3=O gave a selectivity ratio [1] of 500, a CC50 [2] of 25 µM and an EC50 (Human alphaherpesvirus 1) of 0.05 µM.
For COc1ccc2sc3c(c2c1)NC[C@H](C(C)C)NC3=O, the selectivity ratio [1] was 67, the CC50 [2] was 4 µM and the EC50 (Human alphaherpesvirus 1) was 0.06 µM.
COc1cccc(CN2CCNC(=O)c3sc4ccc(OC)cc4c32)c1 gave a selectivity ratio [1] of 25000, a CC50 [2] of 10 µM and an EC50 (Human alphaherpesvirus 1) of 0.0004 µM.
Work on COc1ccc2sc3c(c2c1)N[C@H](C)CNC3=O yielded a selectivity ratio [1] of 54, a CC50 [2] of 7 µM and an EC50 (Human alphaherpesvirus 1) of 0.13 µM.
Compound COc1cccc(CN2C[C@@H](Cc3ccccc3)NC(=O)c3sc4ccc(OC)cc4c32)c1 has a selectivity ratio [1] of 9, a CC50 [2] of 4 µM and an EC50 (Human alphaherpesvirus 1) of 0.45 µM.
Work on COc1ccc2sc3c(c2c1)N(Cc1cccc(Cl)c1)CCNC3=O yielded a selectivity ratio [1] of 4000, a CC50 [2] of 20 µM and an EC50 (Human alphaherpesvirus 1) of 0.005 µM.
With COc1ccc2sc3c(c2c1)N[C@@H](Cc1ccccc1)CNC3=O the selectivity ratio [1] was 110, the CC50 [2] was 1.1 µM and the EC50 (Human alphaherpesvirus 1) was 0.01 µM.
With COc1ccc2sc3c(c2c1)N(Cc1ccc(C)cc1)CCNC3=O the selectivity ratio [1] was 360, the CC50 [2] was 11 µM and the EC50 (Human alphaherpesvirus 1) was 0.03 µM.
In the case of COc1cccc(CN2C[C@H](Cc3ccccc3)NC(=O)c3sc4ccc(OC)cc4c32)c1, the selectivity ratio [1] is reported as 67, the CC50 [2] is reported as 6 µM and the EC50 (Human alphaherpesvirus 1) is reported as 0.09 µM.
Compound COc1ccc2sc3c(c2c1)SCCNC3=O has a selectivity ratio [1] of 60, a CC50 [2] of 7.6 µM and an EC50 (Human alphaherpesvirus 1) of 0.125 µM.
For COc1ccc2sc3c(c2c1)NCCNC3=O, the selectivity ratio [1] was 35, the CC50 [2] was 4.5 µM and the EC50 (Human alphaherpesvirus 1) was 0.13 µM.
In the case of COc1ccc2sc3c(c2c1)[S+]([O-])CCNC3=O (centres undefined), the selectivity ratio [1] is reported as 10, the CC50 [2] is reported as 25.8 µM and the EC50 (Human alphaherpesvirus 1) is reported as 2.55 µM.
In the case of COc1ccc2sc3c(c2c1)NC[C@H](CC(C)C)NC3=O, the selectivity ratio [1] is reported as 100, the CC50 [2] is reported as 2 µM and the EC50 (Human alphaherpesvirus 1) is reported as 0.02 µM.
COc1ccc2sc3c(c2c1)N(C)CCNC3=O gave a selectivity ratio [1] of 28, a CC50 [2] of 12.5 µM and an EC50 (Human alphaherpesvirus 1) of 0.44 µM.
C=CCN1CCNC(=O)c2sc3ccc(OC)cc3c21 showed a selectivity ratio [1] of 1750, a CC50 [2] of 1.75 µM and an EC50 (Human alphaherpesvirus 1) of 0.001 µM.
COc1ccc2sc3c(c2c1)N(Cc1ccccc1)CCNC3=O showed a selectivity ratio [1] of 1600, a CC50 [2] of 8 µM and an EC50 (Human alphaherpesvirus 1) of 0.005 µM.
COc1ccc2sc3c(c2c1)NC[C@@H](C(C)C)NC3=O gave a selectivity ratio [1] of 37, a CC50 [2] of 3.3 µM and an EC50 (Human alphaherpesvirus 1) of 0.09 µM.
COc1ccc2sc3c(c2c1)OCCNC3=O showed a selectivity ratio [1] of 60, a CC50 [2] of 13.1 µM and an EC50 (Human alphaherpesvirus 1) of 0.21 µM.
COc1ccc2sc3c(c2c1)N(Cc1ccccc1Cl)CCNC3=O gave a selectivity ratio [1] of 1500, a CC50 [2] of 12 µM and an EC50 (Human alphaherpesvirus 1) of 0.008 µM.
COc1ccc2sc3c(c2c1)N(Cc1ccc(Cl)cc1)CCNC3=O gave a selectivity ratio [1] of 300, a CC50 [2] of 12 µM and an EC50 (Human alphaherpesvirus 1) of 0.04 µM.
COc1ccc2sc3c(c2c1)NC[C@H](Cc1ccccc1)NC3=O showed a selectivity ratio [1] of 7, a CC50 [2] of 1.9 µM and an EC50 (Human alphaherpesvirus 1) of 0.28 µM.
Work on COc1ccc2sc3c(c2c1)NC[C@@H](C)NC3=O yielded a selectivity ratio [1] of 50, a CC50 [2] of 1 µM and an EC50 (Human alphaherpesvirus 1) of 0.02 µM.
